According to patent US9540366B2, “Ring-fused heterocyclic compound” (Kyowa Hakko Kirin Co., Ltd., priority 2012, dated 2017):
pIC50: −log10 of the molar value. Like-named read-outs stand apart in the source and are kept apart here.

Target: T1, human Cav3.2 T-type Ca2+ channel (Homo sapiens, UniProt O95180)
T1 construct: expressed in transfected cells; host or cells: KJMGER8 cells (Namalwa cell-derived cell line)
Test: Inhibitory effect for intracellular calcium response via Cav3.2 T-type Ca2+ channels (FLIPR Calcium 3 Assay Kit)
Format: cell-based

[1] = human Cav3.2-expressing KJMGER8 cells (Namalwa-derived), calcium response induced by 5 mmol/L CaCl2, 3 μmol/L mibefradil as reference, read-out: IC50 for the human Cav3.2 T-type Ca2+ current

T1 sequence (O95180 whole entry): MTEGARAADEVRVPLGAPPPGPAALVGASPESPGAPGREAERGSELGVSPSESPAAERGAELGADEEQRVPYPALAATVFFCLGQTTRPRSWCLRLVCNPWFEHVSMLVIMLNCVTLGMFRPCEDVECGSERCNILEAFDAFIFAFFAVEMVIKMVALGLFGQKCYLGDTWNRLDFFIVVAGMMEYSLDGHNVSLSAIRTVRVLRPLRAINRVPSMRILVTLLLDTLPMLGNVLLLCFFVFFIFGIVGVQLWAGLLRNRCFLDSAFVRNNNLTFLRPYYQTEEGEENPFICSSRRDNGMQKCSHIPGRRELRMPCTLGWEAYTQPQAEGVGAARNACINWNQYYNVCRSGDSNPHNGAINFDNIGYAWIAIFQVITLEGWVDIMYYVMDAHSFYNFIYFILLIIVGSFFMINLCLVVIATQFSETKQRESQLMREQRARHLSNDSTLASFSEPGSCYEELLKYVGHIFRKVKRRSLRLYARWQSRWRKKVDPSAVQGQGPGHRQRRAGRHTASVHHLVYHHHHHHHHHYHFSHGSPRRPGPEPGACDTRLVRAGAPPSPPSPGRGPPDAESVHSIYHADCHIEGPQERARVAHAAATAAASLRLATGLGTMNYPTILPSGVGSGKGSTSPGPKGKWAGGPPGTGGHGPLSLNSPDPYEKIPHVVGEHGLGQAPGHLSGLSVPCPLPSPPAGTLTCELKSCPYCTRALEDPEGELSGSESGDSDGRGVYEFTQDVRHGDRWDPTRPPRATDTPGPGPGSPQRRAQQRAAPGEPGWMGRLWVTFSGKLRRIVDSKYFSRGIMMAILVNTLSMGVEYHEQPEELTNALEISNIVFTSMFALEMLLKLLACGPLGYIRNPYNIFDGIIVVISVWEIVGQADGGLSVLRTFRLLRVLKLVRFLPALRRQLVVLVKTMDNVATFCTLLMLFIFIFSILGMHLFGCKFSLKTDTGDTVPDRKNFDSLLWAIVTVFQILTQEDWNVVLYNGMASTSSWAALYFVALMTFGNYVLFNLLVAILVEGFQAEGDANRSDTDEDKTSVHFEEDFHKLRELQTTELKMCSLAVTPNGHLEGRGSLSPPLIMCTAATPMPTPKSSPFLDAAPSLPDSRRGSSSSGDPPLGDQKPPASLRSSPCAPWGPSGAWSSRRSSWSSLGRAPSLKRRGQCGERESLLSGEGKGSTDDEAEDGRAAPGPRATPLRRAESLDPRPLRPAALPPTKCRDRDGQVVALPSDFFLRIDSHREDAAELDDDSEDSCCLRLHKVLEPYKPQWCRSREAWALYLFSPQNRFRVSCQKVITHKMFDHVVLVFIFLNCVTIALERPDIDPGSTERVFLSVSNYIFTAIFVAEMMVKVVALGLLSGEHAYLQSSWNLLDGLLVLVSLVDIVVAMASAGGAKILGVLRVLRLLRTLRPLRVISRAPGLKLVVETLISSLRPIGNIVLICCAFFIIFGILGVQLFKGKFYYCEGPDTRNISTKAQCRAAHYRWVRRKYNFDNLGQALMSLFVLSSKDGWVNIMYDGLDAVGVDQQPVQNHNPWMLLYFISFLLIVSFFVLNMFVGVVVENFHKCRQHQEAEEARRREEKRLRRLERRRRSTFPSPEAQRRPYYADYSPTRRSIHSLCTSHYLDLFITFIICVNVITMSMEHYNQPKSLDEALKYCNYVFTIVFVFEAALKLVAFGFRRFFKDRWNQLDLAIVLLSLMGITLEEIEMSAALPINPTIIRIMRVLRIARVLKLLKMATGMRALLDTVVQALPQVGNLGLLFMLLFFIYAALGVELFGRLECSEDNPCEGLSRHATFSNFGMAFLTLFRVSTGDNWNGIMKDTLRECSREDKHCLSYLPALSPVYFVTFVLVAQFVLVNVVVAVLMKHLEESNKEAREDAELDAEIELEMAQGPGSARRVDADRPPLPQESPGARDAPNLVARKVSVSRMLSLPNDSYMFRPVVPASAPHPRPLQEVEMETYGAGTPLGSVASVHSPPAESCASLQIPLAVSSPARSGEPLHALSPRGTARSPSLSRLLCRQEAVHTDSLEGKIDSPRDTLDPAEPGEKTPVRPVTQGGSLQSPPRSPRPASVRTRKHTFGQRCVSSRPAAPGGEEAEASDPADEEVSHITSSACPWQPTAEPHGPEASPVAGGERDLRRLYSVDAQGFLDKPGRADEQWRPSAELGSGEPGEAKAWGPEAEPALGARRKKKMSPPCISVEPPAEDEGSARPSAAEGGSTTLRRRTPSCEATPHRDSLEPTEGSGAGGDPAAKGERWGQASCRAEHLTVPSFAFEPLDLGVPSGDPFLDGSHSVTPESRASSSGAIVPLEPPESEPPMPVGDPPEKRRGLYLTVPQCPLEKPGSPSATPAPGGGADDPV

| Structure (SMILES) | pIC50 | pIC50 [1] |
| --- | --- | --- |
| CC(F)(F)c1nc2cc(C(=O)N[C@H]3C[C@@H]4CC[C@H]3O4)cc(C=O)n2c1CC1CCC(F)(F)CC1 [Compound 179, N-[(1R,2S,4S)-7-Oxabicyclo[2.2.1]heptan-2-yl]-3-[(4,4-difluorocyclohexyl)methyl]-2-(1,1-difluoroethyl)-5-formylimidazo[1,2-a]pyridine-7-carboxamide] | ≥ 7.00 |  |
| C[C@H](NC(=O)c1cc(C#N)n2c(CC3CCC(F)(F)CC3)c(C(F)(F)F)nc2c1)C(=O)N(C)C [Compound 187, (S)-5-Cyano-3-[(4,4-difluorocyclohexyl)methyl]-N-[1-(dimethylamino)-1-oxopropan-2-yl]-2-(trifluoromethyl)imidazo[1,2-a]pyridine-7-carboxamide] | ≥ 7.00 |  |
| N#Cc1cc(C(=O)NC23CCN(CC2)C3)cc2nc(C(F)(F)F)c(CC3CCC(F)(F)CC3)n12 [Compound 188, N-(1-Azabicyclo[2.2.1]heptan-4-yl)-5-cyano-3-[(4,4-difluorocyclohexyl)methyl]-2-(trifluoromethyl)imidazo[1,2-a]pyridine-7-carboxamide] | ≥ 7.00 |  |
| [2H]C([2H])([2H])OC(C)(C)CNC(=O)c1cc(CO)n2c(CC3CCC(F)(F)CC3)c(C(C)(F)F)nc2c1 [Compound 192, 3-[(4,4-Difluorocyclohexyl)methyl]-2-(1,1-difluoroethyl)-5-(hydroxymethyl)-N-(2-methoxy-d3-2-methylpropyl)imidazo[1,2-a]pyridine-7-carboxamide] | ≥ 7.00 |  |
| Cc1c(C(=O)NC2CCOCC2)cc2nc(C(F)(F)F)c(CC3CCC(F)(F)CC3)n2c1Cl [Compound 195, 5-Chloro-3-[(4,4-difluorocyclohexyl)methyl]-6-methyl-N-(tetrahydro-2H-pyran-4-yl)-2-(trifluoromethyl)imidazo[1,2-a]pyridine-7-carboxamide] | ≥ 7.00 |  |
| CC(C)(C)NC(=O)c1cc(C#N)n2c(CC3CCC(F)(F)CC3)c(C(F)(F)F)nc2c1 [Compound 198, N-tert-Butyl-5-cyano-3-[(4,4-difluorocyclohexyl)methyl]-2-(trifluoromethyl)imidazo[1,2-a]pyridine-7-carboxamide] |  | ≥ 7.00 |
| N#Cc1cc(C(=O)NC(=O)C2CC2)cc2nc(C(F)(F)F)c(CC3CCC(F)(F)CC3)n12 [Compound 202, 5-Cyano-N-(cyclopropanecarbonyl)-3-[(4,4-difluorocyclohexyl)methyl]-2-(trifluoromethyl)imidazo[1,2-a]pyridine-7-carboxamide] | ≥ 7.00 |  |
| CC(C)(C)C(=O)NC(=O)c1cc(C#N)n2c(CC3CCC(F)(F)CC3)c(C(F)(F)F)nc2c1 [Compound 203, 5-Cyano-3-[(4,4-difluorocyclohexyl)methyl]-N-pivaloyl-2-(trifluoromethyl)imidazo[1,2-a]pyridine-7-carboxamide] | ≥ 7.00 |  |
| CC1(C)CC(NC(=O)c2cc3nc(C(F)(F)F)c(CC4CCC(F)(F)CC4)n3c(Cl)c2Cl)CCO1 (stereo not drawn) [Compound 205, 5,6-Dichloro-3-[(4,4-difluorocyclohexyl)methyl]-N-(2,2-dimethyltetrahydro-2H-pyran-4-yl)-2-(trifluoromethyl)imidazo[1,2-a]pyridine-7-carboxamide] |  | ≥ 7.00 |
| Cc1cc(C(=O)NC2CCOCC2)cc2nc(C(F)(F)F)c(Cc3ccccc3)n12 [Compound 206, 3-Benzyl-5-methyl-N-(tetrahydro-2H-pyran-4-yl)-2-(trifluoromethyl)imidazo[1,2-a]pyridine-7-carboxamide] | ≥ 7.00 |  |
| Cc1ccc(Cc2c(C(F)(F)F)nc3cc(C(=O)NC4CCOCC4)cc(C)n23)cc1 [Compound 207, 5-Methyl-3-(4-methylbenzyl)-N-(tetrahydro-2H-pyran-4-yl)-2-(trifluoromethyl)imidazo[1,2-a]pyridine-7-carboxamide] | ≥ 7.00 |  |
| COc1ccc(Cc2c(C(F)(F)F)nc3cc(C(=O)NC4CCOCC4)cc(C)n23)cc1 [Compound 209, 3-(4-Methoxybenzyl)-5-methyl-N-(tetrahydro-2H-pyran-4-yl)-2-(trifluoromethyl)imidazo[1,2-a]pyridine-7-carboxamide] | ≥ 7.00 |  |
| N#Cc1cc(C(=O)N2C[C@H]3COC[C@@H](C2)C3=O)cc2nc(C(F)(F)F)c(CC3CCC(F)(F)CC3)n12 [Compound 210, 3-[(4,4-Difluorocyclohexyl)methyl]-7-[(1R,5S)-9-oxo-3-oxa-7-azabicyclo[3.3.1]nonane-7-carbonyl)-2-(trifluoromethyl)imidazo[1,2-a]pyridine-5-carbonitrile] |  | ≥ 7.00 |
| N#Cc1cc(C(=O)NC2CCOCC2)cc2nc(C(F)(F)F)c(Cc3ccc(Cl)cc3)n12 [Compound 211, 3-(4-Chlorobenzyl)-5-cyano-N-(tetrahydro-2H-pyran-4-yl)-2-(trifluoromethyl)imidazo[1,2-a]pyridine-7-carboxamide] | ≥ 7.00 |  |
| Cc1cc(C(=O)NC2CCOCC2)cc2nc(C(F)(F)F)c(Cc3ccc(F)cc3)n12 [Compound 212, 3-(4-Fluorobenzyl)-5-methyl-N-(tetrahydro-2H-pyran-4-yl)-2-(trifluoromethyl)imidazo[1,2-a]pyridine-7-carboxamide] | ≥ 7.00 |  |
| CSC(C)(C)CNC(=O)c1cc2nc(C(F)(F)F)c(CC3CCC(F)(F)CC3)n2c(Cl)c1Cl [Compound 213, 5,6-Dichloro-3-[(4,4-difluorocyclohexyl)methyl]-N-[2-methyl-2-(methylthio)propyl]-2-(trifluoromethyl)imidazo[1,2-a]pyridine-7-carboxamide] | ≥ 7.00 |  |
| Cc1cc(C(=O)NC2CCOCC2)cc2nc(C(C)(F)F)c(Cc3ccc(Cl)cc3)n12 [Compound 214, 3-(4-Chlorobenzyl)-2-(1,1-difluoroethyl)-5-methyl-N-(tetrahydro-2H-pyran-4-yl)imidazo[1,2-a]pyridine-7-carboxamide] | ≥ 7.00 |  |
| Cc1cc(C(=O)N[C@H]2C[C@@H]3CC[C@H]2O3)cc2nc(C(C)(F)F)c(Cc3ccc(Cl)cc3)n12 [Compound 215, N-[(1R,2S,4S)-7-Oxabicyclo[2.2.1]heptan-2-yl]-3-(4-chlorobenzyl)-2-(1,1-difluoroethyl)-5-methylimidazo[1,2-a]pyridine-7-carboxamide] |  | ≥ 7.00 |
| CC(C)(CNC(=O)c1cc2nc(C(F)(F)F)c(CC3CCC(F)(F)CC3)n2c(Cl)c1Cl)S(C)(=O)=O [Compound 216, 5,6-Dichloro-3-[(4,4-difluorocyclohexyl)methyl]-N-[2-methyl-2-(methylsulfonyl)propyl]-2-(trifluoromethyl)imidazo[1,2-a]pyridine-7-carboxamide] | ≥ 7.00 |  |
| Cc1cc(C(=O)NC(C)(C)C)cc2nc(C(F)(F)F)c(CC3CCC(F)(F)CC3)n12 [Compound 217, N-tert-Butyl-3-[(4,4-difluorocyclohexyl)methyl]-5-methyl-2-(trifluoromethyl)imidazo[1,2-a]pyridine-7-carboxamide] | ≥ 7.00 |  |
| Cc1cc(C(=O)NC(C)(C)C)cc2nc(C(C)(F)F)c(CC3CCC(F)(F)CC3)n12 [Compound 218, N-tert-Butyl-3-[(4,4-difluorocyclohexyl)methyl]-2-(1,1-difluoroethyl)-5-methylimidazo[1,2-a]pyridine-7-carboxamide] | ≥ 7.00 |  |
| Cc1cc(C(=O)NC(C)(C)C)cc2nc(C(C)C)c(CC3CCC(F)(F)CC3)n12 [Compound 219, N-tert-Butyl-3-[(4,4-difluorocyclohexyl)methyl]-2-isopropyl-5-methylimidazo[1,2-a]pyridine-7-carboxamide] | ≥ 7.00 |  |
| CC(C)(C)NC(=O)c1cc(Cl)n2c(CC3CCC(F)(F)CC3)c(C(F)(F)F)nc2c1 [Compound 220, N-tert-Butyl-5-chloro-3-[(4,4-difluorocyclohexyl)methyl]-2-(trifluoromethyl)imidazo[1,2-a]pyridine-7-carboxamide] | ≥ 7.00 |  |
| CC(F)(F)c1nc2cc(C(=O)NC3CCOCC3)cc(C#N)n2c1Cc1ccc(Cl)cc1 [Compound 221, 3-(4-Chlorobenzyl)-5-cyano-2-(1,1-difluoroethyl)-N-(tetrahydro-2H-pyran-4-yl)imidazo[1,2-a]pyridine-7-carboxamide] | ≥ 7.00 |  |
| CC(F)(F)c1nc2cc(C(=O)N[C@H]3C[C@@H]4CC[C@H]3O4)cc(C#N)n2c1Cc1ccc(Cl)cc1 [Compound 222, N-[(1R,2S,4S)-7-Oxabicyclo[2.2.1]heptan-2-yl]-3-(4-chlorobenzyl)-5-cyano-2-(1,1-difluoroethyl)imidazo[1,2-a]pyridine-7-carboxamide] | ≥ 7.00 |  |
| [2H]C([2H])([2H])OC(C)(C)CNC(=O)c1cc(C#N)n2c(Cc3ccc(Cl)cc3)c(C(C)(F)F)nc2c1 [Compound 223, 3-(4-Chlorobenzyl)-5-cyano-2-(1,1-difluoroethyl)-N-(2-methoxy-d3-2-methylpropyl)imidazo[1,2-a]pyridine-7-carboxamide] | ≥ 7.00 |  |
| Cc1cc(C(=O)NC2CCOCC2)cc2nc(C(C)C)c(Cc3ccc(Cl)cc3)n12 [Compound 224, 3-(4-Chlorobenzyl)-2-isopropyl-5-methyl-N-(tetrahydro-2H-pyran-4-yl)imidazo[1,2-a]pyridine-7-carboxamide] | ≥ 7.00 |  |
| CC(C)(C)NC(=O)c1cc(C#N)n2c(CC3CCC(F)(F)CC3)c(C(C)(F)F)nc2c1 [Compound 225, N-tert-Butyl-5-cyano-3-[(4,4-difluorocyclohexyl)methyl]-2-(1,1-difluoroethyl)imidazo[1,2-a]pyridine-7-carboxamide] | ≥ 7.00 |  |
| CC(C)c1nc2cc(C(=O)NC(C)(C)C)cc(C#N)n2c1CC1CCC(F)(F)CC1 [Compound 226, N-tert-Butyl-5-cyano-3-[(4,4-difluorocyclohexyl)methyl]-2-isopropylimidazo[1,2-a]pyridine-7-carboxamide] | ≥ 7.00 |  |
| CC(C)(C)NC(=O)c1cc2nc(C(F)(F)F)c(CC3CCC(F)(F)CC3)n2c(Cl)c1Cl [Compound 227, N-tert-Butyl-5,6-dichloro-3-[(4,4-difluorocyclohexyl)methyl]-2-(trifluoromethyl)imidazo[1,2-a]pyridine-7-carboxamide] | ≥ 7.00 |  |
